Results reported in US20230000945A1, “TOPICAL PHARMACEUTICAL FORMULATIONS OF A CYCLIC DEPSIPEPTIDE” (Lifemax Laboratories, Inc., priority 2020, published 2023).

How the values were obtained:
[1] = Stability of LM030 formulations stored at 50° C. for 7 days; type: physicochemical; settings: summary of Table 7
[2] = General solubility and stability properties of LM030; type: physicochemical
Text: Difficulties in formulating LM030 for topical administration are described in U.S. Pat. No. 8,680,054. In particular, the solubility and stability properties of LM030 create challenges in developing a topical formulation with adequate storage stability that is also able to provide an effective amount of active agent available for skin penetration [See col 4, lines 16-23].

Compound: CC[C@H](C)[C@@H]1NC(=O)[C@H](Cc2ccc(O)cc2)N(C)C(=O)[C@H]([C@@H](C)CC)N2C(=O)[C@H](CC[C@H]2O)NC(=O)[C@H](CC(C)C)NC(=O)[C@@H](NC(=O)[C@H](CCC(N)=O)NC(=O)C(C)C)[C@@H](C)OC1=O [LM030]
- stability in the presence of aqueous solutions [1]: poor stability
- solubility in lipophilic excipients [2]: low
- solubility in polar organic solvents [2]: good
- solubility in water and aqueous buffers [2]: moderate
- stability in polar organic solvents [2]: poor
